Starred links: 1 amine or outer side, 2 acyl side, 3 side chain; linkers in the order of their positions; H or OH if unused. Residues, ends and D or L forms follow the SMILES beside them. Suc = O=C(CCC(=O)[*:2])[*:1]

Regarding `CCOC(=O)C(=O)N(CC)C(=O)OCCOc1ccc(Oc2ccccc2)cc1`, the melting point – broadly, the temperature, or range, at which the solid turns liquid – lay within 56 to 58 °C.

Take `CCn1nc(-c2ccccc2)c(C(C)=O)c([N+](=O)[O-])c1=O`: the melting point was in the range of 226 to 227 °C.

Regarding `OCc1ccc(-c2cn(Cc3ccccc3)c3ccccc23)cc1`, the melting point is 122 °C.

`CS(=O)(=O)c1ccc(-c2[nH]c(SCc3ccc4ccccc4n3)nc2-c2ccc(F)cc2)cc1`: the melting point was 179 to 182 °C.

Molecule `CNC(=O)N1CCC(c2nn(-c3ccc(F)cc3)c3ccccc23)CC1` yielded a melting point of 113 to 115 °C.

`CC12CCC(OC(=O)C(F)(F)F)CC1=CCC1=C2CCC2(C)C(=O)CCC12` (configuration not stated) gave a melting point of 109 to 115 °C.

With `Cc1ccc(S(=O)(=O)c2ccc(C)cc2CC(Cl)(Cl)C#N)c(CC(Cl)(Cl)C#N)c1`, the melting point was 71 to 72 °C.

As to `CN1CC(CN=[N+]=[N-])CC2c3cccc4c3c(cn4C)CC21` (configuration not stated), the melting point is 168 to 169 °C.

In the case of `Cn1c(=O)c2nc(-c3ccc(/C=C/C(=O)O)cc3)[nH]c2n(Cc2ccccc2)c1=O`, the melting point was above 300 °C.

In turn, `Cc1cc(C)c(CC(=O)O)c(C#N)c1` had a melting point of 155 to 157 °C.

With `CCn1c(COC)nc(C(C)C)c1Sc1cc(C#N)cc(C#N)c1`, the melting point is 156 to 158 °C.

On to `C=CCc1cc2c(c(CC=C)c1O)S(=O)CN2CC=C` (configuration not stated), for which the melting point was in the range of 110 to 111 °C.

In turn, `COC(=O)c1cccc([N+](=O)[O-])c1CS(N)(=O)=O` returned a melting point of 119 to 123 °C.

Molecule `CCOc1ccc(-c2nc(-c3cc(C(=O)O)c(O)cc3O)cs2)cc1OCC` displayed a melting point of 233 to 234 °C.

Molecule `COc1nn2ccccc2c1C(C)=O` came in with a melting point of 158 °C.

In turn, `O=C1CCc2c(-c3ccncc3)sc(-c3ccccc3F)c21` yielded a melting point of 133 to 135 °C.

`COc1ccc2c(c1)CCN(C(=O)OCc1ccccc1)C21CCC(C(=O)O)(C(=O)O)CC1`: the melting point lay within 193 to 194 °C.

`O=c1cnn(-c2ccc(C(c3ccc(Cl)cc3)c3nc(-c4ccccc4)cs3)c(Cl)c2)c(=O)[nH]1` (configuration not stated) gave a melting point of 90 °C.

`CCOC(=O)C1=Cc2cc(Cl)cc(CO[N+](=O)[O-])c2OC1C(F)(F)F` (configuration not stated) showed a melting point of 53 °C.

In turn, `CC(CNc1nc(Cl)ncc1Cl)NS(C)(=O)=O` (configuration not stated) came in with a melting point of 160 °C.

Take `COC(=O)CCS(=O)(=O)c1cc(C(C)(C)C)c(O)c(C(C)(C)C)c1`: the melting point was 109 to 111 °C.

The molecule `COC(=O)C1(C)CN(C(=O)Nc2ccc(Cl)cn2)N=C1c1ccc(Cl)cc1` (configuration not stated) returned a melting point of 130 to 146 °C.

As to `CCNC(=O)C1CCCN1C(=O)C(C)NC(=O)C(C)NC(=O)CCC(=O)O` (stereo not drawn) (Suc-Ala-Ala-Pro-NHEt; configuration not given here), the melting point lay in the range of 185 to 186 °C.

Molecule `CCCc1ccc(C(=O)O)c(C(=O)O)n1` gave a melting point of 149 to 153 °C.

Molecule `CN1C(=S)N(c2cc(Cl)cc(Cl)c2)C(O)C1O` (configuration not stated) returned a melting point of 143 °C.

`CCOCc1nc2c(N)nc3cc(OCc4ccccc4)ccc3c2n1CC(C)(C)O` gave a melting point of 215 to 216 °C.

Regarding `CN(C)CCCOc1ccc(C(=O)c2c(-c3ccccc3)oc3ccccc23)cc1`, the melting point was in the range of 85 to 95 °C.

`CCCCOC(=O)c1cc2cccc(OC)c2[nH]1` displayed a melting point of 66 to 69 °C.

Molecule `O=C(Nc1ccc2c(c1)OCO2)O[C@@H]1CN=C(c2ccccc2)O[C@H]1c1ccccc1` (racemic) registered a melting point of 138 °C.

As to `Nc1nc2c(sc(=O)n2CCCCC(=O)O)c(=O)[nH]1`, the melting point fell in the range of 263 to 265 °C.

Regarding `CNC(=O)/C(=N/OC)c1ccccc1COc1ccc(-c2ccccc2)cc1`, the melting point fell in the range of 136 to 137 °C.

Molecule `C=CCOc1ccc(Nc2ccn(-c3ccccc3)n2)cc1` showed a melting point of 80 to 81 °C.

The molecule `NS(=O)(=O)c1ccc(-n2nc(C(F)(F)F)cc2-c2ccc(Cl)cc2)cc1F` came in with a melting point of 140 to 141 °C.

The molecule `CC(C)Nc1nc(Br)cnc1OCC(O)CBr` (configuration not stated) returned a melting point of 108 to 109 °C.

Consider `C=CCOC(=O)c1c(Oc2nc(OC)cc(OC)n2)ccc2[nH]c(C)c(N)c12`, for which the melting point lay within 132 to 135 °C.

`COC(=O)CCCc1cc2nc(Cl)ccc2n1S(=O)(=O)c1ccccc1` gave a melting point of 85 to 90 °C.

As for `Cc1ccc(=NS(=O)(=O)C(F)(F)F)n(-c2cccc(C(F)(F)F)c2)c1`, the melting point was determined as 206 °C.

The molecule `CCC(O)(c1ccc(OCCN2CCOCC2)cc1)c1cccc(C(F)(F)F)c1` (configuration not stated) yielded a melting point of 73 to 74 °C.

Regarding `CC(C)OC(=O)c1cc(N)ccc1Cl`, the melting point was in the range of 50.5 to 52 °C.

As to `COc1ccc(NC(C)c2ccccc2)cc1` (configuration not stated), the melting point is 64 °C.

The molecule `Cn1cc2c(n1)Nc1ccc(F)cc1N=C2N1CCN(CC2CC2)CC1` registered a melting point of 188 to 189 °C.

As for `CCCCCS(=O)(=O)NC(=O)/C(=C/c1ccc(OCCOC)cc1Oc1ncc(C(F)(F)F)cc1Cl)CC`, the melting point was in the range of 104 to 106 °C.

`CC(=O)C1CCC2C3CCC4CC(=O)CCC4(C)C3C(O)CC12C` (configuration not stated) displayed a melting point of 227 to 233 °C.

`Nc1cccc(Cn2c(-c3ccc(-c4cccnc4)cc3)ccc2-c2ccccc2Cl)n1` showed a melting point of 139 to 145 °C.

In turn, `COc1cc(OC)c2ccccc2c1OC(C)=O` had a melting point of 116 to 117 °C.

For `O=S(=O)(Nc1c(F)c(F)nc(F)c1F)C(F)(F)F`, the melting point lay in the range of 69 to 70 °C.

For `CC(C)NCC(O)COc1ccccc1C1=NNC(=O)CC1` (configuration not stated), the melting point was in the range of 124 to 126 °C.

Molecule `CC(=O)OCC(=O)C1(OC(=O)CC(C)C)CCC2C3CC(C)C4=CC(=O)C=CC4(C)C3C(O)CC21C` (configuration not stated) displayed a melting point of 172 °C.

Turning to `CC(=O)N(c1nc2cc3nc(N(C(C)=O)N4CCN(C)CC4)sc3cc2s1)N1CCN(C)CC1`, the melting point fell in the range of 256 to 258 °C.

As to `COC=C(C(=O)OC)n1ccc2ccc(-c3csc(-c4ccc(C)cc4)n3)cc21`, the melting point was in the range of 145 to 146 °C.

`CC(C)(CC(=O)Nc1cccc(OCc2ccc3ccc(F)cc3n2)c1)C(=O)O` showed a melting point of 209 to 210 °C.

`Nc1sc2c(c1C(=O)c1ccc(Cl)cc1)CCN(Cc1ccccc1)C2`: the melting point fell in the range of 155 to 157 °C.

`CSC1C(O)C(CO)OC1n1ccc(N)nc1=O` (configuration not stated) had a melting point of 201 °C.

Molecule `COC(=O)CCCCCCNC(=O)c1cn2c3c(cccc13)CCC2` yielded a melting point of 66 to 67 °C.

Regarding `CCN1CN2C(=N1)C(c1ccccc1Cl)=NCC1=C2S(=O)CC1` (configuration not stated), the melting point is 199 to 200 °C.

Molecule `N#Cc1ccc(-c2ccc(Cl)cc2)[nH]c1=O` yielded a melting point of 330 to 339 °C.

In turn, `Clc1nc(-c2ccncc2)cs1` came in with a melting point of 124 to 125 °C.

Molecule `CC(C)(C)OC(=O)N1CCN(c2ccc(S(=O)(=O)c3ccccc3)c(N)c2)CC1` yielded a melting point of 135 to 137 °C.

Molecule `CC12CC(=O)C3C(CCC4CC5OC5CC43C)C1CCC2=O` (configuration not stated) yielded a melting point of 166 to 167 °C.

The molecule `O=C1OC(CN2CCC(O)(c3ccc(Cl)cc3)CC2)CN1c1ccccc1` (configuration not stated) had a melting point of 139 to 140 °C.

Take `O=C(O)CCCc1cc2nc(Cl)ccc2n1S(=O)(=O)c1cc(Cl)ccc1Cl`: the melting point was 86 to 89 °C.

The molecule `Cc1c(Cc2ccc(C(C)C)cc2)c2c(c(C)c1NC(=O)CC(C)(C)C)C(c1ccccc1)CO2` (configuration not stated) registered a melting point of 137 to 141 °C.

Turning to `COC(=O)c1ccc2c(c1)Sc1ccccc1N=C2N1CCOCC1`, the melting point lay in the range of 114 to 115 °C.

For `CN(C)CCCNC(=O)CCCCCCCCCCCNC(N)=NC(=O)c1nc(Cl)c(N)nc1N`, the melting point was in the range of 82 to 84 °C.

The molecule `CC1(C)CCCC(N2CCN(C3CCC(C(C)(C)C)CC3)CC2)C1` (configuration not stated) registered a melting point of 90 to 92 °C.

Consider `Cc1cc(C)c(NC(=O)Nc2c(-c3ccccc3Cl)c3ccncc3n(C)c2=O)c(C)c1`, for which the melting point lay in the range of 222 to 224 °C.

For `Cc1nnc2n1-c1sc(CCc3ccc(-c4ccccc4)cc3)cc1C(c1ccccc1Cl)=NC2`, the melting point was 163 to 165 °C.

Molecule `Cc1cc(Cl)cc(C(=O)NC(C)C2CC2)c1NC(=O)c1cc(Br)nn1-c1ncccc1Cl` (configuration not stated) gave a melting point of 182 to 183 °C.

The molecule `O=C(C(=O)C12CC3CC(CC(C3)C1)C2)c1ccc(OC(F)F)cc1` yielded a melting point of 118 to 120 °C.

`CCCCNC(=O)[C@@H](C[C@H](O)[C@H](CC1CCCCC1)N=[N+]=[N-])C(C)C` displayed a melting point of 100 °C.

In the case of `CCCCCCCCCCCCCCCCCCOc1cc(C(N)=O)cc(N(CC(=O)O)CC(=O)O)c1`, the melting point lay in the range of 213 to 216 °C.

Turning to `CN(CCCNC(=O)NCCSCc1csc(NC(=N)N)n1)CCC(c1ccccc1)c1ccccn1` (configuration not stated), the melting point lay within 95 to 98 °C.

The molecule `c1ccc(CN2CCN(Cc3ccccc3)C(CCc3ccncc3)C2)cc1` (configuration not stated) yielded a melting point of 96 to 98 °C.

`CC(=O)OCC(C)(COC(C)=O)C(=O)O` showed a melting point of 85 °C.

`CCC(C)(C)c1cc(C(=O)O)c(O)c(C(C)(C)CC)c1` had a melting point of 132 to 133 °C.

For `O=c1ccn(C(OC2CCCCO2)c2ccccn2)cc1` (configuration not stated), the melting point fell in the range of 173 to 176 °C.

In turn, `O=c1[nH]c2ccc(Cl)cc2n2ccnc12` displayed a melting point above 300 °C.

`COC(=O)CCS(=O)c1cc(C(C)(C)C)c(O)c(C(C)(C)C)c1` (configuration not stated): the melting point lay within 106 to 108 °C.

Regarding `Nc1ccc2c(c1)C(NC(=O)C(F)(F)F)CC2` (configuration not stated), the melting point was in the range of 133 to 134 °C.

`COc1cc(C)nc(NC(=O)NS(=O)(=O)c2ccccc2NC(C)=O)n1` gave a melting point of 161 to 162 °C.

For `Cc1ccc(NC(=O)c2ccc(C(=O)Nc3ccccc3NC(=O)OC(C)(C)C)nc2)cc1Nc1nc(-c2cccnc2)cs1`, the melting point is 222 to 224 °C.

As to `O=C(NCC1Cc2cc(Cl)cc(-c3ccsc3)c2O1)OCc1ccccc1` (configuration not stated), the melting point lay in the range of 90 to 92 °C.

`CCCCCC(CC(=O)Nc1cc(C(N)=O)ccc1C(C)(C)C)c1cc(F)c(OC)cc1OC` (configuration not stated): the melting point amounted to 150 °C.

Molecule `O=[N+]([O-])c1ccc(OC[C@@H]2CCCN2c2ccc3ccccc3n2)cc1` gave a melting point of 118 to 120 °C.

`CCC(=Cc1cccc([N+](=O)[O-])c1)[N+](=O)[O-]` had a melting point of 68 to 72 °C.

`COn1c(C2CCCCC2)nc2c(N)nc3ccccc3c21` gave a melting point of 220 to 222 °C.

`CCC(C)(C)c1ccc(Oc2ccncc2NC(=O)c2ccccc2)c(C(C)(C)CC)c1` registered a melting point of 253 °C.
